The text below walks through data of ChEMBL document CHEMBL1201862, “PubChem BioAssay data set” (2004).

The source made the active and inactive calls. Rule as the data show it, for most assays here: actives have a measured EC50 and inactives only a lower limit. Bounds are passed on as bounds.

Experiment [1] deals with Mothers against decapentaplegic homolog 3 (Homo sapiens, UniProt P84022). Description: Smad3 binding inhibitors, lysate ELISA, dose response, cell lysate, secondary confirmation, chemiluminescent ELISA, HEK293 lysate (AID 1058). It is filed as functional.
Mothers against decapentaplegic homolog 3, sequence (P84022 whole entry): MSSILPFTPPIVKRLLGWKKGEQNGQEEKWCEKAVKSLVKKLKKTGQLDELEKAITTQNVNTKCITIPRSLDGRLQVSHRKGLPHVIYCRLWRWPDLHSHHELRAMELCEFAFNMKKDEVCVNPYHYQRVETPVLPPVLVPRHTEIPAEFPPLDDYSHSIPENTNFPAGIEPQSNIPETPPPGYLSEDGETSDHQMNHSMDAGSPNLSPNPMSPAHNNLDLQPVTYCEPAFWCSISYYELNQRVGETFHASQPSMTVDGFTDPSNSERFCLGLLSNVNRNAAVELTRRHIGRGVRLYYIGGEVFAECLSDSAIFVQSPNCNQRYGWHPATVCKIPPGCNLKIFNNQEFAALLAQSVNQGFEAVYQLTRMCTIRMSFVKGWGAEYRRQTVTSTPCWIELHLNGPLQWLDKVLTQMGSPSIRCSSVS
In a further experiment the test system is Streptococcus. Description: Group A Streptococcus viability loss, dose response, counter-screen for streptokinase expression inhibitor project, luminescence, BacTiterGlo (AID 1915).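 Also: potency for reduction of bacterial viability or growth.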 The experiment is classed as functional, organism-based.
Experiment [2] has as its system Streptococcus sp. 'group A'. Description: growth inhibition of control SK(-) GAS strain, dose response, counter-screen for streptokinase expression inhibitor project, luminescence, kanamycin, BacTiterGlo, confirmation (AID 1900). The experiment is classed as functional, organism-based. (Counterscreens check selectivity or assay interference.)
The nature of experiment [3]: HIV-1 Env-mediated cell fusion inhibitors, dose response, CCR5-tropic Env (AID 2279). The experiment is classed as functional.
A further experiment has as its target T1, Streptokinase A (Streptococcus pyogenes serotype M1, UniProt P10520).
T1 sequence (P10520 whole entry): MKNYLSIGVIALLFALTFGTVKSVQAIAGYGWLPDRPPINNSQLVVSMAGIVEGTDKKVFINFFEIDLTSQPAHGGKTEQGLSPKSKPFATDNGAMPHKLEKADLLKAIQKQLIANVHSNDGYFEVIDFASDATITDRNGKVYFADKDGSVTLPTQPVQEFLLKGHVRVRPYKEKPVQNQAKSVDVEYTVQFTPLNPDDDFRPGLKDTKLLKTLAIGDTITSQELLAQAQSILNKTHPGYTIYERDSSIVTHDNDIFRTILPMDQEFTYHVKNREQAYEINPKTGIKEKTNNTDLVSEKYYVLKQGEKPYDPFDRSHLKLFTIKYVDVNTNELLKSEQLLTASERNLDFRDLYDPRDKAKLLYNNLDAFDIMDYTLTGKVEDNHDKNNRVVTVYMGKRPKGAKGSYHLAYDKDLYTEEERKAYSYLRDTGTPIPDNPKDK
Kind of experiment: S. pyogenes streptokinase expression inhibitors, potency, dose response, plasminogen activation absorbance, OD405 (AID 1914).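 Also: secreted streptokinase activity via plasminogen activation per viability signal from cell pellet.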 It is filed as functional, Streptococcus pyogenes M1 GAS.

The target of experiment [4] is T2, Microphthalmia-associated transcription factor (Homo sapiens, UniProt O75030).
T2 sequence (O75030 whole entry): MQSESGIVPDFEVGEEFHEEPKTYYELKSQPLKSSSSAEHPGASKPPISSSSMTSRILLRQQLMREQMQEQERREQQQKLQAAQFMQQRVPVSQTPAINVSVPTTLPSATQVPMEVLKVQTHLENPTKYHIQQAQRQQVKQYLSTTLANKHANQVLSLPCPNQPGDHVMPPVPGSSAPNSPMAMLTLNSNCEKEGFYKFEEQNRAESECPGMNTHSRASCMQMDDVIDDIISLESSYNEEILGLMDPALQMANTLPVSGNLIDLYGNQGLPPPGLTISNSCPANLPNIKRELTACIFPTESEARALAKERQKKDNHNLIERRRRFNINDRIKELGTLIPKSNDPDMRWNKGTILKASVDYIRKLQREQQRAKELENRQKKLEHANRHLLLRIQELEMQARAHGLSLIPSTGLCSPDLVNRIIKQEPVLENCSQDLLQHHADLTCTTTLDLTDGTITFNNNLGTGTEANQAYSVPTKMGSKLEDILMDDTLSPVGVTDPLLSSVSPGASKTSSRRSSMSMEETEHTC
Kind of experiment: TRPM1 promoter luciferase signal decrease, dose response, MITF inhibitor project, cell-based, SK-MEL-5, cherry-picked, set 3 (AID 493073).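 Also: SK-MEL-5 melanoma cells with luciferase driven by the MITF target TRPM1 promoter.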 It is filed as functional.

Experiment [5] in a line: inhibitors of firefly luciferase expression or activity, dose response, H4 neuroglioma cells, luminescence (AID 1990). It is filed as functional, cell-based.
Experiment [6] is described as follows: inhibitors of SNCA 5'UTR-driven reporter translation, confirmation, H4 neuroglioma cells, luminescence (AID 1988). It is filed as functional, cell-based.
The nature of experiment [7]: Luminescence Cell-Based Dose Confirmation HTS to Identify Inhibitors of Polyadenylation. The experiment is classed as functional.
Experiment [8] in a line: polyadenylation inhibitors in yeast reporter, dose response, luminescence, S. cerevisiae SKY197-pL101 (AID 2525). The experiment is classed as functional, cell-based.
Experiment [9] in a line: Luminescence Cell-Based Dose Response HTS to Identify Inhibitors of 5'UTR Stem-Loop Driven Prion Protein mRNA Translation in H4 Neuroglioblastoma Cells. [Related pubchem assays: 1827 (Project Summary), 1813 (Primary HTS)]. The experiment is classed as functional.
In experiment [10] the target is Neuropeptide Y receptor type 2 (Homo sapiens, UniProt P49146). It is filed as functional, cell-based.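 Also: HEK293 cells expressing the receptor and a CNG channel; stimulus was NPY near EC95 followed by isoproterenol to raise cAMP; antagonist potency measured as restoring cAMP signal that NPY suppresses.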
Neuropeptide Y receptor type 2, sequence (P49146 whole entry): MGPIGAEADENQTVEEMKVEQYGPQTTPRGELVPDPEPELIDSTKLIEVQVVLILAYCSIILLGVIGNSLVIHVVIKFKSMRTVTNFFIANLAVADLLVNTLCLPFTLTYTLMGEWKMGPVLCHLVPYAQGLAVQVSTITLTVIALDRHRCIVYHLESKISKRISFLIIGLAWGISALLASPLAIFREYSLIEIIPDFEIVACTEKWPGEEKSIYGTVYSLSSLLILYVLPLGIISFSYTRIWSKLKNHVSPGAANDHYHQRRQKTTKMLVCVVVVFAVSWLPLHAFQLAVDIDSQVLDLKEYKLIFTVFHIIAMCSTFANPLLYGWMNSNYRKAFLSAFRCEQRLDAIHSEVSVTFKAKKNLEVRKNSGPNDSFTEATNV
Experiment [11] has as its target Neuropeptide Y receptor type 1 (Homo sapiens, UniProt P25929). It is filed as functional.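 Also: HEK293 cells with a CNG channel challenged with NPY then isoproterenol; potency as antagonist that reverses NPY suppression of cAMP signal.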
The nature of experiment [12]: cytotoxicity toward DRD oncogenic fibroblasts, dose response, cell-based, non-viral oncogenic, luminescence (AID 1934). Conditions: Homo sapiens. It is filed as functional.
Experiment [13] in a line: inhibitors of SNCA 5'UTR-driven translation, confirmation, luminescence, H4 neuroglioblastoma cells, dose confirmation (AID 2454).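 Also: H4 neuroglioblastoma cells carrying an alpha-synuclein 5'UTR luciferase reporter; potency for inhibition of the luciferase signal.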 It is filed as functional, cell-based.
A further experiment deals with A-375. Description: MITF: Counter assay: A375 proliferation Measured in Cell-Based System Using Plate Reader - 2084-03_Inhibitor_Dose_DryPowder_Activity. [Related pubchem assays (depositor defined):AID488944]. It is filed as functional. The following applies: Homo sapiens.
Experiment [14] in a line: LGR2 antagonists, dose response, cell-based, HEK293, CRE-luciferase reporter, cherry pick, set 2 (AID 743343).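 Also: transfected cells were stimulated with diluted bursicon conditioned medium after compound addition.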 It is filed as functional. For orientation: A reporter such as luciferase makes a cellular process visible.
In experiment [15] the test system is BJ. Kind of experiment: cytotoxicity toward BJ-TERT-LT-ST fibroblasts, dose response, cell-based, RAS-independent, luminescence (AID 1935).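 Also: BJ fibroblasts immortalized with TERT plus LT and ST oncogenes.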 The experiment is classed as functional. Conditions: Homo sapiens.
The subject of experiment [16] is BJ. Kind of experiment: cytotoxicity toward Ras-transformed BJeLR fibroblasts, dose response, cell-based, alamar blue fluorescence, cherrypicked samples (AID 2631).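 Also: confirmatory dose-response assay in RAS-dependent BJ fibroblasts engineered with TERT, LT and ST, with cytotoxicity read by fluorescence.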 The experiment is classed as functional. Conditions: Homo sapiens. For orientation: The colour change of resazurin is a common sign of viable cells or microbes.
Experiment [17] in a line: HepG2 cell cytotoxicity, dose response, cytotoxicity control, plate reader, cherry-pick, antagonist series (AID 743416). It is filed as functional, cell-based.
The nature of experiment [18]: A549 cell cytotoxicity, dose response, cytotoxicity control, plate reader, cherry-pick, antagonist series (AID 743412). The experiment is classed as functional, cell-based.
Experiment [19] deals with Luciferin 4-monooxygenase (Photinus pyralis, UniProt P08659). Kind of experiment: Counter Screen for Luciferase-based Assay Positives. [Related pubchem assays: 620, 618, 411 ].
Luciferin 4-monooxygenase, sequence (P08659 whole entry): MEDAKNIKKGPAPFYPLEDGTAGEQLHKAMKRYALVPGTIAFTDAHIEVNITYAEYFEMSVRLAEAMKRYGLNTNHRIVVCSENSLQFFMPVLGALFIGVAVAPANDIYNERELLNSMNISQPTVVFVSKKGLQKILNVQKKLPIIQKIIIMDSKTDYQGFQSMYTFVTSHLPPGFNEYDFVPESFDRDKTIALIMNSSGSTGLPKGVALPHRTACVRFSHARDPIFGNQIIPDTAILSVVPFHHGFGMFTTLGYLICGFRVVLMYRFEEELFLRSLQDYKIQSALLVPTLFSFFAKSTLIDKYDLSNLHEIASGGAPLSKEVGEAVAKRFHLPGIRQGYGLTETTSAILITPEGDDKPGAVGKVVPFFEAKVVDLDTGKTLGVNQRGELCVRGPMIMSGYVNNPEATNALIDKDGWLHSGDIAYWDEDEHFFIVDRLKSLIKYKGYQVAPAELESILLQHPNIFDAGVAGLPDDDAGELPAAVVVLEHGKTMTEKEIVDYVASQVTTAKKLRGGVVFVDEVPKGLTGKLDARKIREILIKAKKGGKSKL
The nature of experiment [20]: MC4R antagonists, dose response, counter-screen for LGR2 antagonist project, cell-based, plate reader, cherry pick (AID 743444).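 Also: transfected HEK 293 cells stimulated with alpha-MSH peptide; potency of inhibitors of the alpha-MSH evoked signal.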 It is filed as functional.
In a further experiment the test system is HT-1080. Description: cytotoxicity in HT1080 fibrosarcoma cells, cell-based, fluorescence readout (AID 620). It is filed as functional. Conditions: Homo sapiens.
A short description of experiment [21]: HEK293 cell cytotoxicity, dose response, cytotoxicity control, plate reader, cherry-picked samples (AID 743446). It is filed as functional, cell-based.
A short description of experiment [22]: luciferase reporter signal reduction – luminescence, H4-C neuroglioblastoma cells, dose response (AID 2458).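 Also: H4 neuroglioblastoma cells stably carrying a luciferase reporter gene fusion.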 The experiment is classed as functional, cell-based.
A short description of experiment [23]: Luminescence-based counterscreen assay for KLF5 inhibitors: dose response cell-based high throughput screening assay to identify cytotoxic compounds using the IEC-6 intestinal epithelial cell line. [Related pubchem assays: 1700 (Primary screen.), 1834 (Confirmation screen.), 1858 (Summary AID.), 1905 (Counterscreen.)]. The experiment is classed as functional.

In experiment [24] the target is Glyceraldehyde-3-phosphate dehydrogenase (Homo sapiens, UniProt P04406).
Glyceraldehyde-3-phosphate dehydrogenase, sequence (P04406 whole entry): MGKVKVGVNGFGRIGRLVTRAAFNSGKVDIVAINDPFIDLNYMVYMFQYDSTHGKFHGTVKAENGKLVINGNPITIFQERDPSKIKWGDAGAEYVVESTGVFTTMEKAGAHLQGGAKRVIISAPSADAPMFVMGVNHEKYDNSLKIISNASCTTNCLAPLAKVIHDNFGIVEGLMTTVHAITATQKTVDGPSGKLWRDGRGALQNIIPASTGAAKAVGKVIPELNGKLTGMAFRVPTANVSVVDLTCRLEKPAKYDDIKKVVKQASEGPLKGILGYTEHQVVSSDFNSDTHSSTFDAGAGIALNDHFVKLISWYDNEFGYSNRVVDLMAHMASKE
The next experiment in a line: cells. The experiment is classed as functional, cell-based.
The test system of experiment [25] is BJ. Kind of experiment: cytotoxicity toward BJ-TERT fibroblasts, dose response, cell-based, RAS-independent, luminescence (AID 1933). The experiment is classed as functional. The following applies: Homo sapiens.
The test system of experiment [26] is BJ. Description: cells. The experiment is classed as functional, cell-based. Conditions: Homo sapiens.

Neuropeptide Y receptor type 1, sequence (P25929 whole entry): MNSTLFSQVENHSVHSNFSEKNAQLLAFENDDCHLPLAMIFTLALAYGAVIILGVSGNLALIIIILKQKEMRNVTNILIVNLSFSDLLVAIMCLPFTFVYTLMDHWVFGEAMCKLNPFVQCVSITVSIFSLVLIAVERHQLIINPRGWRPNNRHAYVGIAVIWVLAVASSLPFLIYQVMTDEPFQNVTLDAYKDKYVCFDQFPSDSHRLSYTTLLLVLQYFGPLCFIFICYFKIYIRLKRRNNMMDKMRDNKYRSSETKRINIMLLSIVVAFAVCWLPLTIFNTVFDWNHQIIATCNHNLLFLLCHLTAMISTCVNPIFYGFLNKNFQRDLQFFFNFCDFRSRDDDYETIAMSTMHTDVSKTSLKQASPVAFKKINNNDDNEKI

`Oc1cc2c(cc1C(c1ccc3c(c1)OCO3)N1CCCCC1)OCO2` (stereo not given): the IC50 in experiment [1] is on record as > 40 µM (not active).

On to `CCOc1cc(/C=N/Nc2cccc(C(=O)O)c2)ccc1OC(=O)c1ccccc1`, for which the concentration for a half-maximal effect (EC50) with Streptococcus was 17 µM (active); in experiment [2], 3.53 µM (active); at Streptokinase A it was > 150 µM (not active). In [3], the half-maximal inhibitory concentration (IC50) is 3.03 µM (active). Besides, the AC50 in experiment [4] was 1.38 µM (active).

For `O=C(Oc1c(-c2ccccc2)c(=O)n2c3c(cccc13)CC2)c1cccc([N+](=O)[O-])c1`, the concentration giving a half-maximal response (EC50) is 12 µM (active) in experiment [5]; 13 µM (active) in experiment [6]; 9.78 µM (active) in experiment [7]; 3.89 µM (active) in [8]; 12.3 µM (active) in experiment [9].

On to `COc1ccc(Cn2c(/C=C/c3ccccc3)nc3ccccc32)cc1`, for which the IC50 is 5.51 µM (active) in experiment [10] and 4.02 µM (active) in experiment [11].

Regarding `Cc1ccc(-c2nnc(SCC(=O)Nc3ccccc3F)o2)cc1`, the 50% effective concentration (EC50) was 7.36 µM (inconclusive) in [12]; < 0.195 µM (active) in [5]; > 12 µM (inconclusive) in experiment [13]; < 0.1 µM (active) in experiment [6]; 21.7 µM (active) with BJ [15]; > 133 µM (inactive) in the experiment with BJ [16]. Moreover, the EC50 in experiment [19] was 9.52 µM (active); in the experiment on HT-1080 it was > 50 µM (not active); in experiment [9], < 0.1 µM (active); in experiment [22], > 12 µM (inconclusive); in “cells”, 0.839 µM (active); in the experiment on BJ [25], 10.2 µM (active). The EC50 in the experiment with BJ [26] was 6.59 µM (active). Further, the AC50 in the experiment with A-375 is 33.7 µM (active); in experiment [14], 7.12 µM (active); in experiment [17], 12.4 µM (active); in [18], 8.7 µM (active); in [20], 14.7 µM (active); in experiment [21] it was 9.16 µM (active). Further, the AC50 in experiment [4] was 2.3 µM (active). Besides, the concentration for half-maximal inhibition (IC50) is listed as 34.7 µM (not active) in experiment [23] and > 100 µM (not active) in experiment [24].

The term IC50 denotes the concentration at which inhibition is half-maximal. A word on the EC50: it is the concentration needed to bring the measured effect to its halfway point. A word on the AC50: it is the midpoint of the concentration-response curve, whichever way the signal moves.
